From patent publication US11623919B2, “Heterocyclic P2X7 antagonists” (AXXAM S.P.A., priority 2017, dated 2023) come the findings set out here.

Some results are limits rather than exact numbers.

Holding throughout (assay): Screen Quest Fluo-8 No Wash Calcium Assay (Bz-ATP evoked Ca2+ influx, FLIPR)
What all share (assay type): cell-based

The target in assay [1] is T1, P2X7 receptor (Rattus norvegicus, UniProt Q64663).
T1 construct: rP2X7 (IC50; nM); other: rP2X7; HEK-293 cells stably transfected with P2X7 receptor, Bz-ATP at EC80, Fluo-8 NW; potency
T1 sequence (Q64663 1-595): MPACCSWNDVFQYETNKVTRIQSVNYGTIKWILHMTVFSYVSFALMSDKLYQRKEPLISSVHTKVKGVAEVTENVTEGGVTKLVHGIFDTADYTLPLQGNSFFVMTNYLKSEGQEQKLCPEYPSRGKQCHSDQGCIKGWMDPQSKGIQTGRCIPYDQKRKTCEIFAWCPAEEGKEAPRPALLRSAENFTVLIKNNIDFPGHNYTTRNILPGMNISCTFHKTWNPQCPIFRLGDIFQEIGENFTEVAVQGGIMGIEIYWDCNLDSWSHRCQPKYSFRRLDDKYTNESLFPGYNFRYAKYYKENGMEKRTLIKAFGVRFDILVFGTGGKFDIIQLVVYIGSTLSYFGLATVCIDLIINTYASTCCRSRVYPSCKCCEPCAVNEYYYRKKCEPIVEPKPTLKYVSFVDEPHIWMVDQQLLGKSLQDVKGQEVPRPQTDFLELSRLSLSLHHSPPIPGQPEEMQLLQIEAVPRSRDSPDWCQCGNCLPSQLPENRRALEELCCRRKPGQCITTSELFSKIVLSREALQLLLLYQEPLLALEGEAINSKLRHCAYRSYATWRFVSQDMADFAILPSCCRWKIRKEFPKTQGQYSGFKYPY
Particulars: rP2X7; HEK-293 cells stably transfected with P2X7 receptor, Bz-ATP at EC80, Fluo-8 NW; potency ranges A-D. The method in brief:
(§1)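 HEK-293 cells stably expressing P2X7 were loaded with Fluo-8 NW for 1 h at RT, then given compound, and 5 min later Bz-ATP at EC80. Fluorescence was read by FLIPR in low divalent cation buffer (0.3 mM Ca2+, 0 mM Mg2+). IC50 came from percent inhibition relative to reference antagonist A438079.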

Assay [2] deals with T2, P2X7 receptor (Mus musculus, UniProt Q9Z1M0).
T2 construct: mP2X7 (IC50; nM); other: mP2X7; HEK-293 cells stably transfected with P2X7 receptor, Bz-ATP at EC80, Fluo-8 NW; potency
T2 sequence (Q9Z1M0 1-595): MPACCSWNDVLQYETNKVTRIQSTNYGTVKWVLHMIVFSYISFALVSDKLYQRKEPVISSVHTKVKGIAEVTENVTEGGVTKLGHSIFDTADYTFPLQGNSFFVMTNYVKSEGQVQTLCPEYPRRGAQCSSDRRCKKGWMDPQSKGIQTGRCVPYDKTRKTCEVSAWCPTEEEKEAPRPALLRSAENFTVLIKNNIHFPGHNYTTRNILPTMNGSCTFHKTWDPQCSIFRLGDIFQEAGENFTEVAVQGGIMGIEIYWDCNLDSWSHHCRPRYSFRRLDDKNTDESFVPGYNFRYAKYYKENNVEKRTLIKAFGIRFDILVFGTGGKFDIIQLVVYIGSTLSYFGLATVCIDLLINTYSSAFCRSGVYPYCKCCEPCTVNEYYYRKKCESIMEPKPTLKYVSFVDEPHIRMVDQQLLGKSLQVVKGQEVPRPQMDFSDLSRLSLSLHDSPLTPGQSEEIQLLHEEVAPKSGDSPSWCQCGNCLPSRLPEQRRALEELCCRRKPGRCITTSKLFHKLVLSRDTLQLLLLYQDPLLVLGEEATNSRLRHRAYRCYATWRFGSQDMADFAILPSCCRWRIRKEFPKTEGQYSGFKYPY
Particulars: mP2X7; HEK-293 cells stably transfected with P2X7 receptor, Bz-ATP at EC80, Fluo-8 NW; potency ranges A-D. A digest of the protocol: as §1

Assay [3] addresses T3, P2X7 receptor (Homo sapiens, UniProt Q99572).
T3 sequence (Q99572 1-595): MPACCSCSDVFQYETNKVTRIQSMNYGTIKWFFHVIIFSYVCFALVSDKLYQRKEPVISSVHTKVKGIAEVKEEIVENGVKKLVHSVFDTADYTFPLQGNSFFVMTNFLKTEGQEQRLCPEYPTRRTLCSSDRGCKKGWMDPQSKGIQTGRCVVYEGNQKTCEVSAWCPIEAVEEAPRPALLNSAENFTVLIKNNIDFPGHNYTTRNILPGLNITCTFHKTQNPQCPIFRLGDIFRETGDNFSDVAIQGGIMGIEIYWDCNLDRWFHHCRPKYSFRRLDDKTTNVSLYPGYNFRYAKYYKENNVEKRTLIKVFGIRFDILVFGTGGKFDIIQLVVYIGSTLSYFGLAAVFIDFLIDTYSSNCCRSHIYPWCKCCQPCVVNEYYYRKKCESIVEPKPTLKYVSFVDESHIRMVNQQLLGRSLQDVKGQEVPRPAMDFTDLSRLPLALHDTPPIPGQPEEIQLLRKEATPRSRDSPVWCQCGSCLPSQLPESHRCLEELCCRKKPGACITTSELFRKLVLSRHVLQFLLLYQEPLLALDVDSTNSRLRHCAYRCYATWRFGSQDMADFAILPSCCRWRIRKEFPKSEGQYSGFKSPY
The arrangement: hP2X7 (IC50; nM); other: hP2X7; HEK-293 cells stably transfected with P2X7 receptor, Bz-ATP at EC80, Fluo-8 NW; potency. Particulars: hP2X7; HEK-293 cells stably transfected with P2X7 receptor, Bz-ATP at EC80, Fluo-8 NW; potency ranges A-D. A digest of the protocol: as §1

What is called IC50 is the concentration that gives 50% inhibition. As for `O=c1onc(CC2CCC(F)(F)CC2)n1Cc1ccc(C(F)(F)F)nc1` [Example 189, 3-[(4,4-difluorocyclohexyl)methyl]-4-{[6-(trifluoromethyl)pyridin-3-yl]methyl}-4,5-dihydro-1,2,4-oxadiazol-5-one], the IC50 in assay [1], in assay [2] and in assay [3] was above 10000 nM in each case.
In the case of `O=c1onc(Cc2c(F)cccc2Cl)n1Cc1ncc(F)cn1` [Example 45, 3-[(2-chloro-6-fluorophenyl)methyl]-4-[(5-fluoropyrimidin-2-yl)methyl]-4,5-dihydro-1,2,4-oxadiazol-5-one], the IC50 in assay [1], in assay [2] and in assay [3] was above 10000 nM each time.
Turning to `COc1cccc(Cc2noc(=O)n2Cc2c(F)cccc2Cl)c1` [Example 7, 4-[(2-chloro-6-fluorophenyl)methyl]-3-[(3-methoxyphenyl)methyl]-4,5-dihydro-1,2,4-oxadiazol-5-one], the IC50 is above 10000 nM in assay [1], 1000 to 10000 nM in assay [2] and 1000 to 10000 nM in assay [3].
In the case of `O=c1onc(Cc2c(F)cccc2Cl)n1Cc1ccccc1Cl` [Example 22, 3-[(2-chloro-6-fluorophenyl)methyl]-4-[(2-chlorophenyl)methyl]-4,5-dihydro-1,2,4-oxadiazol-5-one], the IC50 in assay [1], in assay [2] and in assay [3] was 1000 to 10000 nM each time.
Take `Cc1ncccc1Cc1noc(=O)n1Cc1ccc(F)cc1` [Example 216, 4-[(4-fluorophenyl)methyl]-3-[(2-methylpyridin-3-yl)methyl]-4,5-dihydro-1,2,4-oxadiazol-5-one]: the IC50 in assay [1] is 1000 to 10000 nM; in assay [2], above 10000 nM; in assay [3] it was 1000 to 10000 nM.
For `O=c1onc(CC2CCC(F)(F)CC2)n1Cc1nccs1` [Example 191, 3-[(4,4-difluorocyclohexyl)methyl]-4-(1,3-thiazol-2-ylmethyl)-4,5-dihydro-1,2,4-oxadiazol-5-one], the IC50 in assay [1] was 200 to 1000 nM; in assay [2] it was above 10000 nM; in assay [3], 1000 to 10000 nM.
Consider `O=c1onc(Cc2c(F)cccc2Cl)n1Cc1cncs1` [Example 33, 3-[(2-chloro-6-fluorophenyl)methyl]-4-(1,3-thiazol-5-ylmethyl)-4,5-dihydro-1,2,4-oxadiazol-5-one], for which the IC50 in assay [1], in assay [2] and in assay [3] was above 10000 nM in each case.
With `O=c1onc(Cc2c(F)cccc2Cl)n1CC1CCC(F)CC1` (stereo not drawn) [Example 185, 3-[(2-chloro-6-fluorophenyl)methyl]-4-[(4-fluorocyclohexyl)methyl]-4,5-dihydro-1,2,4-oxadiazol-5-one], the IC50 in assay [1], in assay [2] and in assay [3] was below 200 nM throughout.
As to `O=c1snc(CC2CCC(F)(F)CC2)n1Cc1c(F)cccc1Cl` [Example 203, 4-[(2-chloro-6-fluorophenyl)methyl]-3-[(4,4-difluorocyclohexyl)methyl]-4,5-dihydro-1,2,4-thiadiazol-5-one], the concentration for half-maximal inhibition (IC50) in assay [1], in assay [2] and in assay [3] was below 200 nM each time.
As for `Cc1nc(C(F)(F)F)ccc1Cn1c(CC2CCC(F)(F)CC2)noc1=O` [Example 192, 3-[(4,4-difluorocyclohexyl)methyl]-4-{[2-methyl-6-(trifluoromethyl)-pyridin-3-yl]methyl}-4,5-dihydro-1,2,4-oxadiazol-5-one], the IC50 in assay [1], in assay [2] and in assay [3] was above 10000 nM each time.
In the case of `O=c1onc(CN2CCc3ccccc3C2)n1Cc1c(F)cccc1Cl` [Example 244, 4-[(2-chloro-6-fluorophenyl)methyl]-3-(1,2,3,4-tetrahydroisoquinolin-2-ylmethyl)-4,5-dihydro-1,2,4-oxadiazol-5-one], the figures for the IC50 in assay [1], in assay [2] and in assay [3] were 200 to 1000 nM, 200 to 1000 nM and 1000 to 10000 nM, respectively.
As to `COc1ccc(Cn2c(Cc3ccc(F)cc3)noc2=O)cc1` [Example 3, 3-[(4-fluorophenyl)methyl]-4-[(4-methoxyphenyl)methyl]-4,5-dihydro-1,2,4-oxadiazol-5-one], the IC50 in assay [1], in assay [2] and in assay [3] was above 10000 nM each time.
Consider `O=c1onc(Cc2ccncc2)n1CC1CCCCC1` [Example 111, 4-(cyclohexylmethyl)-3-(pyridin-4-ylmethyl)-4,5-dihydro-1,2,4-oxadiazol-5-one], for which the IC50 in assay [1] is 1000 to 10000 nM; in assay [2], 200 to 1000 nM; in assay [3] it was above 10000 nM.
For `CC(c1ccc(F)cc1)n1c(CC2CCC(F)(F)CC2)noc1=O` (stereo not drawn) [Example 164, 3-[(4,4-difluorocyclohexyl)methyl]-4-[1-(4-fluorophenyl)ethyl]-4,5-dihydro-1,2,4-oxadiazol-5-one], in that order: 1000 to 10000 nM, 1000 to 10000 nM and 1000 to 10000 nM.
For `CCn1c(Cc2c(F)cccc2Cl)noc1=O` [Example 175, 3-[(2-chloro-6-fluorophenyl)methyl]-4-ethyl-4,5-dihydro-1,2,4-oxadiazol-5-one], in that order: above 10000 nM, above 10000 nM and above 10000 nM.
`O=c1onc(Cc2c(F)cccc2Cl)n1CC1COCCO1` (stereo not drawn) [Example 98, 3-[(2-chloro-6-fluorophenyl)methyl]-4-(1,4-dioxan-2-ylmethyl)-4,5-dihydro-1,2,4-oxadiazol-5-one]: the IC50 was 1000 to 10000 nM in assay [1], above 10000 nM in assay [2] and above 10000 nM in assay [3].
As for `O=c1snc(Cc2c(F)cccc2Cl)n1Cc1ccc(F)cc1` [Example 139, 3-[(2-chloro-6-fluorophenyl)methyl]-4-[(4-fluorophenyl)methyl]-4,5-dihydro-1,2,4-thiadiazol-5-one], the IC50 in assay [1] lay within 200 to 1000 nM; in assay [2] it was 1000 to 10000 nM; in assay [3], 200 to 1000 nM.
`O=c1onc(Cc2c(F)cccc2Cl)n1CCCN1CCC(F)(F)CC1` [Example 182, 3-[(2-chloro-6-fluorophenyl)methyl]-4-[3-(4,4-difluoropiperidin-1-yl)propyl]-4,5-dihydro-1,2,4-oxadiazol-5-one]: the IC50 is above 10000 nM in assay [1], above 10000 nM in assay [2] and 1000 to 10000 nM in assay [3].
Turning to `O=c1onc(CCc2c(F)cccc2Cl)n1Cc1ccc(F)cc1` [Example 145, 3-[2-(2-chloro-6-fluorophenyl)ethyl]-4-(4-fluorobenzyl)-1,2,4-oxadiazol-5(4H)-one], the IC50 in assay [1], in assay [2] and in assay [3] was 200 to 1000 nM each time.
